Laboratory results reported in patent US10280145B2 (Toray Industries, Inc., priority 2015, dated 2019).

What follows are compounds tested against T1, intracellular domain of DDR1 (Homo sapiens, UniProt Q08345) (assay: Evaluation of DDR1 inhibition activity with HTRF KinEASE-TK kit). Conditions: DDR1 intracellular domain 5 ng/μL, ATP 25 μm/L, TK Substrate-biotin 1000 nmol/L, room temperature, one hour.
T1 construct: the intracellular domain of DDR1 (in a final concentration of 5 ng/μL) (Carna Biosciences, Inc.); purchased Carna Biosciences, Inc
T1 sequence (Q08345 439-913 limits assumed): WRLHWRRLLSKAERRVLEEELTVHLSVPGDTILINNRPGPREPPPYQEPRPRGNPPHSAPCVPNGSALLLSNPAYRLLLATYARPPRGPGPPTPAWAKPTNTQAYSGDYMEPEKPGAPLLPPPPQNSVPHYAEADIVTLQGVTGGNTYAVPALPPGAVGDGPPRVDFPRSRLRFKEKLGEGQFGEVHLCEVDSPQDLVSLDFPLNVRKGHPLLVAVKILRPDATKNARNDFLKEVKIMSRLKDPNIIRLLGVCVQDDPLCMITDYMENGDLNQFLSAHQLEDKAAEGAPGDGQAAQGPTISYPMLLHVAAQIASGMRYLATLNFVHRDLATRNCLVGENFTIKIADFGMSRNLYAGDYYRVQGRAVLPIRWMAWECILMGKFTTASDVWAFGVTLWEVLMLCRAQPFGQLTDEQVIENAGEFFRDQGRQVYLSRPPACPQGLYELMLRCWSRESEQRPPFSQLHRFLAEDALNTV
Format: biochemical
Protocol: The DDR1 inhibition activity in the compounds of Examples 1 to 80 was evaluated with HTRF® KinEASE-TK kit (Cisbio Bioassays).
Each test substance was dissolved in dimethyl sulfoxide and then used for the evaluation as described below. Moreover, each of test substances and reagents was diluted in the kinase buffer (Cisbio Bioassays) prepared by adding thereto MgCl2, MnCl2, DTT, and the Supplemental Enzyme buffer (Cisbio Bioassays) to concentrations of 5 mmol/L, 0.5 mmol/L, 0.25 mmol/L, and 50 nmol/L, respectively, and then used. Each test substance (in DMSO in a final concentration of 1%), the intracellular domain of DDR1 (in a final concentration of 5 ng/μL) (Carna Biosciences, Inc.), the phosphate donor ATP (in final concentration of 25 μm/L) (Sigma), and the substrate TK Substrate-biotin (in a final concentration of 1000 nmol/L) (Cisbio Bioassays) were added to a 384-well black plate (Corning) and allowed to react at room temperature for one hour. After completion of the reaction, the TK Antibody-Cryptate (Cisbio Bioassays) and the Streptavidin-XL665 (Cisbio Bioassays) were added thereto and allowed to react at room temperature for one hour. In addition, the plate was provided with a well to which a test substance was not added, and with a well to which a test substance and the intracellular domain of DDR1 were […].
The fluorescence intensity in each well was measured using a multi-label counter (Envision, PerkinElmer; excitation wavelength: 320 nm, measurement wavelength: 665 nm and 620 nm) to calculate a ratio (the fluorescence intensity at 665 nm/the fluorescence intensity at 620 nm). The inhibition rate (%) of a test substance at each concentration was calculated based on the formula below: Inhibition rate (%)=([the ratio obtained from the well containing no test substance]−[the ratio from a well containing a test substance])/([the ratio obtained from the well containing no test substance]−[the ratio obtained from the well containing no intracellular domain of DDR1 and no test substance])×100.
The calculated inhibition rates were fitted to a sigmoidal dose-response curve by regression analysis using the Prism 5.04 (GraphPad Software, Inc.) to calculate the IC50 value of the test substance.
With `O=C(Nc1cc(C(F)(F)F)ccc1OC1CCNCC1)N[C@H]1CC[C@H](OCc2ccncc2)CC1` [Example 32, 1-(2-(piperidin-4-yloxy)-5-(trifluoromethyl)phenyl)-3-(trans-4-(pyridin-4-ylmethoxy)cyclohexyl)urea] the IC50 was 10 nM.
Compound `CC(=O)N1CC(Oc2ccc(C(F)(F)F)cc2NC(=O)N[C@H]2CC[C@H](OCc3ccncc3)CC2)C1` [Example 33, 1-(2-((1-acetylazetidin-3-yl)oxy)-5-(trifluoromethyl)phenyl)-3-(trans-4-(pyridin-4-ylmethoxy)cyclohexyl)urea] has an IC50 of 28 nM.
`CC(=O)N1CCC(Oc2ccc(C(F)(F)F)cc2NC(=O)N[C@H]2CC[C@H](OCc3ccncc3)CC2)CC1` [Example 34, 1-(2-((1-acetylpiperidin-4-yl)oxy)-5-(trifluoromethyl)phenyl)-3-(trans-4-(pyridin-4-ylmethoxy)cyclohexyl)urea] gave an IC50 of 51 nM.
`O=C(Nc1cc(C(F)(F)F)ccc1O[C@@H]1CCNC1)N[C@H]1CC[C@H](OCc2ccncc2)CC1` [Example 35, 1-(trans-4-(pyridin-4-ylmethoxy)cyclohexyl)-3-(2-((R)-pyrrolidin-3-yloxy)-5-(trifluoromethyl)phenyl)urea] was tested, and the IC50 was 88.6 nM.
In the case of `O=C(Nc1cc(C(F)(F)F)ccc1O[C@H]1CCNC1)N[C@H]1CC[C@H](OCc2ccncc2)CC1` [Example 36, 1-(trans-4-(pyridin-4-ylmethoxy)cyclohexyl)-3-(2-((S)-pyrrolidin-3-yloxy)-5-(trifluoromethyl)phenyl)urea], the IC50 is reported as 140 nM.
With `COc1ccc(C(F)(F)F)cc1NC(=O)N[C@H]1CC[C@H](Oc2ccnc(-c3cccnc3)n2)CC1` [Example 37, 1-(2-methoxy-5-(trifluoromethyl)phenyl)-3-(trans-4-((2-(pyridin-3-yl)pyrimidin-4-yl)oxy)cyclohexyl)urea] the IC50 was 149 nM.
`O=C(Nc1cc(C(F)(F)F)ccc1OC1COC1)N[C@H]1CC[C@H](Oc2ccnc(-c3cccnc3)n2)CC1` [Example 38, 1-(2-(oxetan-3-yloxy)-5-(trifluoromethyl)phenyl)-3-(trans-4-((2-(pyridin-3-yl)pyrimidin-4-yl)oxy)cyclohexyl)urea] gave an IC50 of 61 nM.
`COc1ccc(OC(F)(F)F)cc1NC(=O)N[C@H]1CC[C@H](Oc2ccnc(-c3cccnc3)n2)CC1` [Example 39, 1-(2-methoxy-5-(trifluoromethoxy)phenyl)-3-(trans-4-((2-(pyridin-3-yl)pyrimidin-4-yl)oxy)cyclohexyl)urea] gave an IC50 of 236 nM.
Work on `COc1ccc(C(F)(F)F)cc1NC(=O)N[C@H]1CC[C@H](Oc2nccc(-c3cccnc3)n2)CC1` [Example 40, 1-(2-methoxy-5-(trifluoromethyl)phenyl)-3-(trans-4-((4-(pyridin-3-yl)pyrimidin-2-yl)oxy)cyclohexyl)urea] yielded an IC50 of 98 nM.
For `O=C(Nc1cc(C(F)(F)F)ccc1OC1COC1)N[C@H]1CC[C@H](Oc2nccc(-c3cccnc3)n2)CC1` [Example 41, 1-(2-(oxetan-3-yloxy)-5-(trifluoromethyl)phenyl)-3-(trans-4-((4-(pyridin-3-yl)pyrimidin-2-yl)oxy)cyclohexyl)urea], the IC50 was 45.6 nM.
With `CNc1cc(O[C@H]2CC[C@H](NC(=O)Nc3cc(C(F)(F)F)ccc3OC3CNC3)CC2)ncn1` [Example 42] the IC50 was 27.2 nM.
`CNc1cc(O[C@H]2CC[C@H](NC(=O)Nc3cc(C(F)(F)F)ccc3OC3CCNCC3)CC2)ncn1` [Example 43] showed an IC50 of 31.3 nM.
Compound `O=C(Nc1cc(OC(F)(F)F)ccc1OC1COC1)N[C@H]1CC[C@H](Oc2ccnc(N3CCOCC3)n2)CC1` [Example 44, 1-(trans-4-((2-morpholinopyrimidin-4-yl)oxy)cyclohexyl)-3-(2-(oxetan-3-yloxy)-5-(trifluoromethoxy)phenyl)urea] has an IC50 of 128 nM.
Compound `COc1c(CO)cc(C(F)(F)F)cc1NC(=O)N[C@H]1CC[C@H](Oc2ccnc(-c3cccnc3)n2)CC1` [Example 45, 1-(3-(hydroxymethyl)-2-methoxy-5-(trifluoromethyl)phenyl)-3-(trans-4-((2-(pyridin-3-yl)pyrimidin-4-yl)oxy)cyclohexyl)urea] has an IC50 of 33.8 nM.
Work on `CCOc1ccc(C(F)(F)F)cc1NC(=O)N[C@H]1CC[C@H](Oc2ccnc(N3CCOCC3)n2)CC1` [Example 46, 1-(2-ethoxy-5-(trifluoromethyl)phenyl)-3-(trans-4-((2-morpholinopyrimidin-4-yl)oxy)cyclohexyl)urea] yielded an IC50 of 531 nM.
In the case of `O=C(Nc1cc(C(F)(F)F)ccc1OC1COC1)N[C@H]1CC[C@H](Oc2ccnc(-c3ccncc3)n2)CC1` [Example 47, 1-(2-(oxetan-3-yloxy)-5-(trifluoromethyl)phenyl)-3-(trans-4-((2-(pyridin-4-yl)pyrimidin-4-yl)oxy)cyclohexyl)urea], the IC50 is reported as 56.6 nM.
For `COc1c(CO)cc(OC(F)(F)F)cc1NC(=O)N[C@H]1CC[C@H](Oc2ccnc(N3CCOCC3)n2)CC1` [Example 50, 1-(3-(hydroxymethyl)-2-methoxy-5-(trifluoromethoxy)phenyl)-3-(trans-4-((2-morpholinopyrimidin-4-yl)oxy)cyclohexyl)urea], the IC50 was 35.1 nM.
With `O=C(Nc1ccc(CO)c(C(F)(F)F)c1)N[C@H]1CC[C@H](Oc2ccnc(N3CCOCC3)n2)CC1` [Example 53, 1-(4-(hydroxymethyl)-3-(trifluoromethyl)phenyl)-3-(trans-4-((2-morpholinopyrimidin-4-yl)oxy)cyclohexyl)urea] the IC50 was 254 nM.
`CNc1ccnc(O[C@H]2CC[C@H](NC(=O)Nc3cc(OC(F)(F)F)ccc3OC)CC2)n1` [Example 54, 1-(2-methoxy-5-(trifluoromethoxy)phenyl)-3-(trans-4-((4-(methylamino)pyrimidin-2-yl)oxy)cyclohexyl)urea] gave an IC50 of 95.1 nM.
In the case of `O=C(Nc1cc(C(F)(F)F)ccc1OC1COC1)N[C@H]1CC[C@H](OCc2ccncc2)CC1` [Example 56, 1-(2-(oxetan-3-yloxy)-5-(trifluoromethyl)phenyl)-3-(trans-4-(pyridin-4-ylmethoxy)cyclohexyl)urea], the IC50 is reported as 55.8 nM.
`O=C(Nc1cc(C(F)(F)F)ccc1N1CCOCC1)N[C@H]1CC[C@H](Oc2ncccn2)CC1` [Example 57, 1-(2-morpholino-5-(trifluoromethyl)phenyl)-3-(trans-4-(pyrimidin-2-yloxy)cyclohexyl)urea] gave an IC50 of 653 nM.
`O=C(Nc1cc(C(F)(F)F)ccc1Cl)N[C@H]1CC[C@H](Oc2ncccn2)CC1` [Example 58, 1-(2-chloro-5-(trifluoromethyl)phenyl)-3-(trans-4-(pyrimidin-2-yloxy)cyclohexyl)urea] showed an IC50 of 528 nM.
Compound `COc1ccc(OC(F)(F)F)cc1NC(=O)N[C@H]1CC[C@H](Oc2cc(N3CCOCC3)ncn2)CC1` [Example 59, 1-(2-methoxy-5-(trifluoromethoxy)phenyl)-3-(trans-4-((6-morpholinopyrimidin-4-yl)oxy)cyclohexyl)urea] has an IC50 of 335 nM.
`COc1c(CO)cc(C(F)(F)F)cc1NC(=O)N[C@H]1CC[C@H](Oc2ccnc(NCCO)n2)CC1` [Example 61, 1-(trans-4-((2-((2-hydroxyethyl)amino)pyrimidin-4-yl)oxy)cyclohexyl)-3-(3-(hydroxymethyl)-2-methoxy-5-(trifluoromethyl)phenyl)urea] was tested, and the IC50 was 57.9 nM.
Work on `COc1ccc(OC(F)(F)F)cc1NC(=O)N[C@H]1CC[C@H](Oc2ccnc(NCCO)n2)CC1` [Example 62, 1-(trans-4-((2-((2-hydroxyethyl)amino)pyrimidin-4-yl)oxy)cyclohexyl)-3-(2-methoxy-5-(trifluoromethoxy)phenyl)urea] yielded an IC50 of 138 nM.
With `O=C(Nc1cc(C(F)(F)F)ccc1OC1COC1)N[C@H]1CC[C@H](Oc2ccnc(NCCO)n2)CC1` [Example 63, 1-(trans-4-((2-((2-hydroxyethyl)amino)pyrimidin-4-yl)oxy)cyclohexyl)-3-(2-(oxetan-3-yloxy)-5-(trifluoromethyl)phenyl)urea] the IC50 was 46.7 nM.
With `CNc1nccc(O[C@H]2CC[C@H](NC(=O)Nc3cc(C(F)(F)F)ccc3OC3COC3)CC2)n1` [Example 64, 1-(trans-4-((2-(methylamino)pyrimidin-4-yl)oxy)cyclohexyl)-3-(2-(oxetan-3-yloxy)-5-(trifluoromethyl)phenyl)urea] the IC50 was 54.5 nM.
Work on `CNc1nccc(O[C@H]2CC[C@H](NC(=O)Nc3cc(C(F)(F)F)cc(CO)c3OC)CC2)n1` [Example 65, 1-(3-(hydroxymethyl)-2-methoxy-5-(trifluoromethyl)phenyl)-3-(trans-4-((2-(methylamino)pyrimidin-4-yl)oxy)cyclohexyl)urea] yielded an IC50 of 42.1 nM.
Compound `O=C(Nc1cc(C(F)(F)F)ccc1OC1COC1)N[C@H]1CC[C@H](Oc2ccncn2)CC1` [Example 66, 1-(2-(oxetan-3-yloxy)-5-(trifluoromethyl)phenyl)-3-(trans-4-(pyrimidin-4-yloxy)cyclohexyl)urea] has an IC50 of 98.4 nM.
